# Reference: publication PMC5884652, “New antimicrobial peptide kills drug-resistant pathogens without detectable resistance” (Oncotarget, 2018)
# What was measured:
# P. aeruginosa ATCC 15692 = type: cell-based, Pseudomonas aeruginosa; conditions: pH (I or II) not given; 10 mM sodium phosphate buffer, 10% LB; 37° C, 24 h; mean of 3 experiments
# From the text: The method for peptide synthesis has been described in detail previously. […] Bacillus subtilis KCTC 1998 (LB media), Salmonella typhimurium KCTC 1926 (NB media), and Proteus vulgaris KCTC 2433 (NB media) were obtained from the Korean Collection for Type Cultures (Jeollabuk-do, Korea). E. coli CCARM 1238 was received from the Culture Collection of Antibiotic Resistant Microbes at Seoul Women’s University, Korea. Drug-resistant P. aeruginosa 3543, 3904, 3547, and 4007 and S. aureus 3126, 0027, 5157, 1635, 4761, 5159, 3359, 2122, 1630, 1870, 3511, 5156, and 3518 were resistant strains isolated from patients with otitis media in a Chonnam National University’s hospital.
# The antibacterial activities of AMPs (melittin, clavaspirin, and its analogs) and conventional antibiotic drugs (erythromycin, gentamicin, ampicillin, and piperacidin) were determined using microdilution assays. […] Thereafter, 2× serial dilutions of each peptide (0.25–128 μM) or antibiotic (0.25–256 μM) were added to sterile 96-well plates, and aliquots of cell suspension (5 × 10^5 colony forming units (cfu)/mL) were seeded into each well. The samples were then incubated at 37° C for 24 h. At the end of the incubation, the minimum inhibitory concentrations (MICs) of the peptides were determined using a VERSA Max microplate reader (Molecular Devices Co., Sunnyvale, CA, USA) at a wavelength of 600 nm. […] MIC values were calculated as the mean of 3 independent experiments conducted in triplicate.
# [1] = test system: Bacillus subtilis KCTC 1998; type: cell-based; conditions: pH (I or II) not given; 10 mM sodium phosphate buffer, 10% LB; 37° C, 24 h; mean of 3 experiments
# From the text: (§1) The method for peptide synthesis has been described in detail previously. E. coli ATCC 25922 (LB media), P. aeruginosa ATCC 15692 (NB+0.5% NaCl media), Listeria monocytogenes ATCC 3710 (LB media), Staphylococcus epidermidis ATCC 12228 (LB media), and S. aureus ATCC 29213 (TSB media) were obtained from the American Type Culture Collection (Manassas, VA, USA). Bacillus subtilis KCTC 1998 (LB media), Salmonella typhimurium KCTC 1926 (NB media), and Proteus vulgaris KCTC 2433 (NB media) were obtained from the Korean Collection for Type Cultures (Jeollabuk-do, Korea). E. coli CCARM 1238 was received from the Culture Collection of Antibiotic Resistant Microbes at Seoul Women’s University, Korea. Drug-resistant P. aeruginosa 3543, 3904, 3547, and 4007 and S. aureus 3126, 0027, 5157, 1635, 4761, 5159, 3359, 2122, 1630, 1870, 3511, 5156, and 3518 were resistant strains isolated from patients with otitis media in a Chonnam National University’s hospital.
# (§2) The antibacterial activities of AMPs (melittin, clavaspirin, and its analogs) and conventional antibiotic drugs (erythromycin, gentamicin, ampicillin, and piperacidin) were determined using microdilution assays. Bacterial cells were cultured at 37° C in appropriate culture media at pH 5.5 or pH 7.4 until collection during the mid-log phase and suspended in 10 mM sodium phosphate buffer (pH 5.5 or pH 7.4) supplemented with 10% culture medium. Thereafter, 2× serial dilutions of each peptide (0.25–128 μM) or antibiotic (0.25–256 μM) were added to sterile 96-well plates, and aliquots of cell suspension (5 × 10^5 colony forming units (cfu)/mL) were seeded into each well. The samples were then incubated at 37° C for 24 h. At the end of the incubation, the minimum inhibitory concentrations (MICs) of the peptides were determined using a VERSA Max microplate reader (Molecular Devices Co., Sunnyvale, CA, USA) at a wavelength of 600 nm. […] MIC values were calculated as the mean of 3 independent experiments conducted in triplicate.
# [2] = test system: Listeria monocytogenes ATCC 3710; type: cell-based; conditions: pH (I or II) not given; 10 mM sodium phosphate buffer, 10% LB; 37° C, 24 h; mean of 3 experiments
# From the text: as §1, §2
# [3] = test system: Staphylococcus epidermidis ATCC 12228; type: cell-based; conditions: pH (I or II) not given; 10 mM sodium phosphate buffer, 10% LB; 37° C, 24 h; mean of 3 experiments
# From the text: as §1, §2
# [4] = test system: Proteus vulgaris KCTC 2433; type: cell-based; conditions: pH (I or II) not given; 10 mM sodium phosphate buffer, 10% LB; 37° C, 24 h; mean of 3 experiments
# From the text: as §1, with “Bacillus subtilis KCTC 1998 (LB media), Salmonella typhimurium KCTC 1926 (NB media), and Proteus vulgaris KCTC 2433 (NB media) were obtained from the Korean Collection for Type Cultures (Jeollabuk-do, Korea).” left out
# as §2
# [5] = test system: Salmonella typhimurium KCTC 1926; type: cell-based; conditions: pH (I or II) not given; 10 mM sodium phosphate buffer, 10% LB; 37° C, 24 h; mean of 3 experiments
# From the text: as §1, with “Bacillus subtilis KCTC 1998 (LB media), Salmonella typhimurium KCTC 1926 (NB media), and Proteus vulgaris KCTC 2433 (NB media) were obtained from the Korean Collection for Type Cultures (Jeollabuk-do, Korea).” left out
# as §2
# E. coli CCARM1238 = assay: microbe, parasite or virus in culture; type: cell-based, Escherichia coli; conditions: pH (I or II) not given, 10 mM sodium phosphate buffer, 10% LB, 37° C, 24 h, mean of 3 experiments
# From the text: as §1, §2
# P. aeruginosa 3543 = assay: microbe, parasite or virus in culture; type: cell-based, Pseudomonas aeruginosa; conditions: pH (I or II) not given, 10 mM sodium phosphate buffer, 10% LB, 37° C, 24 h, mean of 3 experiments
# From the text: as §1, §2
# P. aeruginosa 3547 = assay: microbe, parasite or virus in culture; type: cell-based, Pseudomonas aeruginosa; conditions: pH (I or II) not given, 10 mM sodium phosphate buffer, 10% LB, 37° C, 24 h, mean of 3 experiments
# From the text: as §1, §2
# P. aeruginosa 3904 = assay: microbe, parasite or virus in culture; type: cell-based, Pseudomonas aeruginosa; conditions: pH (I or II) not given, 10 mM sodium phosphate buffer, 10% LB, 37° C, 24 h, mean of 3 experiments
# From the text: as §1, §2
# P. aeruginosa 4007 = assay: microbe, parasite or virus in culture; type: cell-based, Pseudomonas aeruginosa; conditions: pH (I or II) not given, 10 mM sodium phosphate buffer, 10% LB, 37° C, 24 h, mean of 3 experiments
# From the text: as §1, §2
# S. aureus 0027 = assay: microbe, parasite or virus in culture; type: cell-based, Staphylococcus aureus; conditions: pH (I or II) not given, 10 mM sodium phosphate buffer, 10% LB, 37° C, 24 h, mean of 3 experiments
# From the text: as §1, §2
# S. aureus 1630 = assay: microbe, parasite or virus in culture; type: cell-based, Staphylococcus aureus; conditions: pH (I or II) not given, 10 mM sodium phosphate buffer, 10% LB, 37° C, 24 h, mean of 3 experiments
# From the text: as §1, §2
# S. aureus 1635 = assay: microbe, parasite or virus in culture; type: cell-based, Staphylococcus aureus; conditions: pH (I or II) not given, 10 mM sodium phosphate buffer, 10% LB, 37° C, 24 h, mean of 3 experiments
# From the text: as §1, §2
# S. aureus 1870 = assay: microbe, parasite or virus in culture; type: cell-based, Staphylococcus aureus; conditions: pH (I or II) not given, 10 mM sodium phosphate buffer, 10% LB, 37° C, 24 h, mean of 3 experiments
# From the text: as §1, §2
# S. aureus 2122 = assay: microbe, parasite or virus in culture; type: cell-based, Staphylococcus aureus; conditions: pH (I or II) not given, 10 mM sodium phosphate buffer, 10% LB, 37° C, 24 h, mean of 3 experiments
# From the text: as §1, §2
# S. aureus 3126 = assay: microbe, parasite or virus in culture; type: cell-based, Staphylococcus aureus; conditions: pH (I or II) not given, 10 mM sodium phosphate buffer, 10% LB, 37° C, 24 h, mean of 3 experiments
# From the text: as §1, §2
# S. aureus 3359 = assay: microbe, parasite or virus in culture; type: cell-based, Staphylococcus aureus; conditions: pH (I or II) not given, 10 mM sodium phosphate buffer, 10% LB, 37° C, 24 h, mean of 3 experiments
# From the text: as §1, §2
# S. aureus 3511 = assay: microbe, parasite or virus in culture; type: cell-based, Staphylococcus aureus; conditions: pH (I or II) not given, 10 mM sodium phosphate buffer, 10% LB, 37° C, 24 h, mean of 3 experiments
# From the text: as §1, §2
# S. aureus 3518 = assay: microbe, parasite or virus in culture; type: cell-based, Staphylococcus aureus; conditions: pH (I or II) not given, 10 mM sodium phosphate buffer, 10% LB, 37° C, 24 h, mean of 3 experiments
# From the text: as §1, §2
# S. aureus 4761 = assay: microbe, parasite or virus in culture; type: cell-based, Staphylococcus aureus; conditions: pH (I or II) not given, 10 mM sodium phosphate buffer, 10% LB, 37° C, 24 h, mean of 3 experiments
# From the text: as §1, §2
# S. aureus 5156 = assay: microbe, parasite or virus in culture; type: cell-based, Staphylococcus aureus; conditions: pH (I or II) not given, 10 mM sodium phosphate buffer, 10% LB, 37° C, 24 h, mean of 3 experiments
# From the text: as §1, §2
# S. aureus 5157 = assay: microbe, parasite or virus in culture; type: cell-based, Staphylococcus aureus; conditions: pH (I or II) not given, 10 mM sodium phosphate buffer, 10% LB, 37° C, 24 h, mean of 3 experiments
# From the text: as §1, §2
# S. aureus 5159 = assay: microbe, parasite or virus in culture; type: cell-based, Staphylococcus aureus; conditions: pH (I or II) not given, 10 mM sodium phosphate buffer, 10% LB, 37° C, 24 h, mean of 3 experiments
# From the text: as §1, §2
compound,measurement,setting,value
CC[C@H](C)[C@H](NC(=O)CN)C(=O)NCC(=O)N[C@@H](C)C(=O)N[C@H](C(=O)N[C@@H](CC(C)C)C(=O)N[C@@H](CCCCN)C(=O)N[C@H](C(=O)N[C@@H](CC(C)C)C(=O)N[C@H](C(=O)N[C@H](C(=O)NCC(=O)N[C@@H](CC(C)C)C(=O)N1CCC[C@H]1C(=O)N[C@@H](C)C(=O)N[C@@H](CC(C)C)C(=O)N[C@H](C(=O)N[C@@H](CO)C(=O)N[C@@H](Cc1c[nH]c2ccccc12)C(=O)N[C@H](C(=O)N[C@@H](CCCCN)C(=O)N[C@@H](CCCNC(=N)N)C(=O)N[C@@H](CCCCN)C(=O)N[C@@H](CCCNC(=N)N)C(=O)N[C@@H](CCC(N)=O)C(=O)N[C@@H](CCC(N)=O)C(N)=O)[C@@H](C)CC)[C@@H](C)CC)[C@@H](C)O)[C@@H](C)O)C(C)C)C(C)C [Melittin],"MIC, P. aeruginosa",P. aeruginosa ATCC 15692,2 µM
same,"MIC, B. subtilis",[1],2 µM
same,"MIC, L. monocytogenes",[2],2 µM
same,"MIC, S. epidermidis",[3],2 µM
same,"MIC, P. vulgaris",[4],2 µM
same,"MIC, S. typhimurium",[5],2 µM
same,MIC,E. coli CCARM1238,2 µM
same,MIC,P. aeruginosa 3543,2 µM
same,MIC,P. aeruginosa 3547,2 µM
same,MIC,P. aeruginosa 3904,2 µM
same,MIC,P. aeruginosa 4007,2 µM
same,MIC,S. aureus 0027,2 µM
same,MIC,S. aureus 1630,4 µM
same,MIC,S. aureus 1635,2 µM
same,MIC,S. aureus 1870,4 µM
same,MIC,S. aureus 2122,4 µM
same,MIC,S. aureus 3126,2 µM
same,MIC,S. aureus 3359,4 µM
same,MIC,S. aureus 3511,4 µM
same,MIC,S. aureus 3518,4 µM
same,MIC,S. aureus 4761,4 µM
same,MIC,S. aureus 5156,4 µM
same,MIC,S. aureus 5157,2 µM
same,MIC,S. aureus 5159,8 µM
CC1(C)S[C@@H]2[C@H](NC(=O)[C@H](N)c3ccccc3)C(=O)N2[C@H]1C(=O)O [ampicillin],MIC,"E. coli CCARM1238; Escherichia coli, CCARM1238",> 800 µM
same,MIC,"P. aeruginosa 3543; Pseudomonas aeruginosa, 3543",> 800 µM
same,MIC,"P. aeruginosa 3547; Pseudomonas aeruginosa, 3547",400 µM
same,MIC,"P. aeruginosa 3904; Pseudomonas aeruginosa, 3904",> 800 µM
same,MIC,"P. aeruginosa 4007; Pseudomonas aeruginosa, 4007",> 800 µM
CNC(C)C1CCC(N)C(OC2C(N)CC(N)C(OC3OCC(C)(O)C(NC)C3O)C2O)O1 (stereo not drawn) [gentamicin],MIC,"S. aureus 0027; Staphylococcus aureus, 0027",64 µM
same,MIC,"S. aureus 1630; Staphylococcus aureus, 1630",64 µM
same,MIC,"S. aureus 1635; Staphylococcus aureus, 1635",> 256 µM
same,MIC,"S. aureus 1870; Staphylococcus aureus, 1870",16 µM
same,MIC,"S. aureus 2122; Staphylococcus aureus, 2122",128 µM
same,MIC,"S. aureus 3126; Staphylococcus aureus, 3126",32 µM
same,MIC,"S. aureus 3359; Staphylococcus aureus, 3359",64 µM
same,MIC,"S. aureus 3511; Staphylococcus aureus, 3511",> 256 µM
same,MIC,"S. aureus 3518; Staphylococcus aureus, 3518",> 256 µM
same,MIC,"S. aureus 4761; Staphylococcus aureus, 4761",32 µM
same,MIC,"S. aureus 5156; Staphylococcus aureus, 5156",> 256 µM
same,MIC,"S. aureus 5157; Staphylococcus aureus, 5157",16 µM
same,MIC,"S. aureus 5159; Staphylococcus aureus, 5159",16 µM
